In general, EC50 refers to the concentration that produces a half-maximal response. Low values mean a more potent agent, high ones a less potent agent.

hFXR, sequence (Q96RI1 whole entry): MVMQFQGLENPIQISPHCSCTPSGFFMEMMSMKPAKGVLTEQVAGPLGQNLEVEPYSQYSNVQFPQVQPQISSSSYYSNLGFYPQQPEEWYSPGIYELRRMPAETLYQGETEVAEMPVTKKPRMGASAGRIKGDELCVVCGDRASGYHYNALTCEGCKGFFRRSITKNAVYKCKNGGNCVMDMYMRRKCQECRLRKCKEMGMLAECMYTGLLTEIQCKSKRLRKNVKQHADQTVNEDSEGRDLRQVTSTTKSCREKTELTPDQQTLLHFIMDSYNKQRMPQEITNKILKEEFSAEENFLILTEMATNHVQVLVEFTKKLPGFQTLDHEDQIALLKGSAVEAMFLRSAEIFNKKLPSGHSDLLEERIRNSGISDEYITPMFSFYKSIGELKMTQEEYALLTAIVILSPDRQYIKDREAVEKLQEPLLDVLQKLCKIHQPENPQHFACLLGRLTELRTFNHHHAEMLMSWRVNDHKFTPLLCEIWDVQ
hFXR, sequence (P19793 whole entry partner): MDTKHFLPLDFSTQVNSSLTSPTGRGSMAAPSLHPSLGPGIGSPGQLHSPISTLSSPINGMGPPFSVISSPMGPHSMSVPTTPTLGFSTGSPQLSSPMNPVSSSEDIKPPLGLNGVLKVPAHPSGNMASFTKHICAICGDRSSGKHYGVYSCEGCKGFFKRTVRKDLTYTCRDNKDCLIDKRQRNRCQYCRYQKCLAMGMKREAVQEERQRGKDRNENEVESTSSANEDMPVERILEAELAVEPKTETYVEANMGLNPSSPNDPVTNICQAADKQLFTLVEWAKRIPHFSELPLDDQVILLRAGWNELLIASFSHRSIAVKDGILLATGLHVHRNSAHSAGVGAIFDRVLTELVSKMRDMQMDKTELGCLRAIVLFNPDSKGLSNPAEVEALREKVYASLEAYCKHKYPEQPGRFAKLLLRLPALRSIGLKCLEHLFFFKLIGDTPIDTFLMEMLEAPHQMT

This assay deals with hFXR (Homo sapiens (Human), UniProt Q96RI1). The experiment in a line: In Vitro FXR Assay (TK), luciferase reporter in transfected CV-1 cells. It counts as cell-based. Conditions: TK-ECRE-luc reporter, hFXR/hRXR, 18 hrs, maximum efficacy <25% of Fexaramine control classified as '+'. The method, then:
CV-1 cells were seeded at a density of 2,000,000 cells in a T175 flask with DMEM+10% charcoal double-stripped FBS and incubated at 37° C. in 5% CO2 for 18 h (O/N).
After 18 h of incubation, the medium in the T175 flask was changed with fresh DMEM+10% charcoal super-stripped serum. In a polypropylene tube, 2500 μL OptiMEM (Life Technologies, Cat #31985-062) was combined with expression plasmids for hFXR, hRXR, TK-ECRE-luc and pCMX-YFP. The tube was then briefly vortexed and incubated at room temperature for 5 minutes. Transfection reagent (X-tremeGENE HP from Roche, Cat #06 366 236 001) was added to the OptiMEM/plasmid mixture vortexed and incubated at room temperature for 20 minutes. Following incubation, the transfection reagent/DNA mixture complex was added to cells in the T175 flask and the cells were incubated at 37° C. in 5% CO2 for 18 h (O/N).
Compounds were serially diluted in DMSO and added to transfected CV-1 cells. The cells were then incubated for 18 hrs. The next day cells were lysed and examined for luminescence.
(In general: In a reporter assay the amount or activity of a reporter protein is the signal.)
`COC(=O)c1ccc2c(N(C[C@H]3CC[C@H](c4cccc(C)c4)CC3)C(=O)CC(C)(C)C)nccc2c1` [Compound 90, Methyl 1-(3,3-dimethyl-N-((trans-4-(m-tolyl)cyclohexyl)methyl)butanamido)isoquinoline-6-carboxylate] came in with an EC50 not above 1000 nM.

On to `COC(=O)c1ccc2c(N(Cc3ccc(-c4ccc(OC)c(C)c4)cc3)C(=O)CC(C)(C)C)nccc2c1` [Compound 19, Methyl 1-(N-((4′-methoxy-3′-methyl-[1,1′-biphenyl]-4-yl)methyl)-3,3-dimethylbutanamido)isoquinoline-6-carboxylate], for which the EC50 was not above 1000 nM. With `COC(=O)c1ccc2c(N(Cc3ccc(-c4ccc(OC)c(C)c4)cc3)C(=O)CC3CC3)nccc2c1` [Compound 80, Methyl 1-(2-cyclopropyl-N-((4′-methoxy-3′-methyl-[1,1′-biphenyl]-4-yl)methyl)acetamido)isoquinoline-6-carboxylate], the 50% effective concentration (EC50) was not above 1000 nM.

In turn, `COc1ccc(-c2ccc(CN(C(=O)CC(C)(C)C)c3nccc4cc(C(=O)OC(C)C)ccc34)cc2)cc1C` [Compound 69, Isopropyl 1-(N-((4′-methoxy-3′-methyl-[1,1′-biphenyl]-4-yl)methyl)-3,3-dimethylbutanamido)isoquinoline-6-carboxylate] gave a half-maximal effective concentration (EC50) not above 1000 nM.

Take `COC(=O)c1ccc2c(N(Cc3ccc(-c4ccc5c(c4)CCO5)cc3)C(=O)CC(C)(C)C)nccc2c1` [Compound 46, Methyl 1-(N′-(4-(2,3-dihydrobenzofuran-5-yl)benzyl)-3,3-dimethylbutanamido)isoquinoline-6-carboxylate]: the EC50 was not above 1000 nM. For the compound `COC(=O)/C=C/c1ccc2c(N(Cc3ccc(-c4ccc(OC)c(C)c4)cc3)C(=O)CC(C)(C)C)nccc2c1` [Compound 102, (E)-Methyl 3-(1-(N-((4′-methoxy-3′-methyl-[1,1′-biphenyl]-4-yl)methyl)-3,3-dimethylbutanamido)isoquinolin-6-yl)acrylate], the concentration giving a half-maximal response (EC50) fell in the range of 1000 to 10000 nM. For `COC(=O)c1ccc2c(N(Cc3ccc(-c4ccc(OC)c(C)c4)cc3)C(=O)CCCCO)nccc2c1` [Compound 86, Methyl 1-(5-hydroxy-N-((4′-methoxy-3′-methyl-[1,1-biphenyl]-4-yl)methyl)pentanamido) isoquinoline-6-carboxylate] the value was not below 10000 nM; for `COC(=O)c1ccc2c(N(Cc3ccc(-c4ccc5c(c4)CCN5)cc3)C(=O)CC(C)(C)C)nccc2c1` [Compound 63, Methyl 1-(N-(4-(indolin-5-yl)benzyl)-3,3-dimethylbutanamido)isoquinoline-6-carboxylate], not above 1000 nM. Take `COc1ccc([C@H]2CC[C@H](CN(C(=O)CC(C)(C)C)c3nccc4cc(C(=O)OC(C)C)ccc34)CC2)cc1C` [Compound 87, Isopropyl 1-(N-((trans-4-(4-methoxy-3-methylphenyl)cyclohexyl)methyl)-3,3-dimethylbutanamido)isoquinoline-6-carboxylate]: the concentration for a half-maximal effect (EC50) was not above 1000 nM. For `COC(=O)c1ccc2c(N(Cc3ccc(-c4ccc(N(C)C)nc4)cc3)C(=O)CC(C)(C)C)nccc2c1` [Compound 38, Methyl 1-(N-(4-(6-(dimethylamino)pyridin-3-yl)benzyl)-3,3-dimethylbutanamido)isoquinoline-6-carboxylate], the EC50 is not above 1000 nM. Consider `COC(=O)c1ccc2c(N(Cc3ccc(-c4cnc(OC)c(Cl)c4)cc3)C(=O)CC(C)(C)C)nccc2c1` [Compound 36, Methyl 1-(N-(4-(5-chloro-6-methoxypyridin-3-yl)benzyl)-3,3-dimethylbutanamido)isoquinoline-6-carboxylate], for which the concentration for a half-maximal effect (EC50) was not above 1000 nM. `COC(=O)c1ccc2c(N(Cc3ccc(-c4ccc(OC)c(F)c4F)cc3)C(=O)CC(C)(C)C)nccc2c1` [Compound 29, Methyl 1-(N-((2′,3′-difluoro-4′-methoxy-[1,1′-biphenyl]-4-yl)methyl)-3,3-dimethylbutanamido)isoquinoline-6-carboxylate] yielded a concentration for a half-maximal effect (EC50) not above 1000 nM. `COC(=O)c1ccc2c(N(Cc3ccc(-c4ccc5c(c4)OCCO5)cc3)C(=O)CC(C)(C)C)nccc2c1` [Compound 48, Methyl 1-(N-(4-(2,3-dihvdrobenzo[b][1,4]dioxin-6-yl)benzyl)-3,3-dimethylbutanamido)isoquinoline-6-carboxylate] displayed an EC50 not above 1000 nM. In the case of `COC(=O)c1ccc2c(N(Cc3ccc(-c4ccc(OC)c(C#N)c4)cc3)C(=O)[C@H]3CC[C@H](O)CC3)nccc2c1` [Compound 67, Methyl 1-(trans-N-((3′-cyano-4′-methoxy-[1,1′-biphenyl]-4-yl)methyl)-4-hydroxycyclohexanecarboxamido) isoquinoline-6-carboxylate], the EC50 is 1000 to 10000 nM. `COC(=O)c1ccc2c(N(Cc3ccc(-c4ccc(OC)c(C)c4)cc3)C(=O)CC(C)C)nccc2c1` [Compound 70, Methyl 1-(N-((4′-methoxy-3′-methyl-[1,1′-biphenyl]-4-yl)methyl)-3-methylbutanamido)isoquinoline-6-carboxylate] registered a 50% effective concentration (EC50) not above 1000 nM.

On to `COC(=O)c1ccc2c(N(Cc3ccc(-c4ccc(OC)c(C)c4)cc3)C(=O)C3CCCC3)nccc2c1` [Compound 71, Methyl 1-(N-((4′-methoxy-3′-methyl-[1,1′-biphenyl]-4-yl)methyl)cyclopentanecarboxamido) isoquinoline-6-carboxylate], for which the EC50 is not above 1000 nM. `COc1ccc(-c2ccc(CN(C(=O)C3CCCCC3)c3nccc4cc(C(=O)OC(C)C)ccc34)cc2)cc1C` [Compound 22, Isopropyl 1-(N-((4′-methoxy-3′-methyl-[1,1′-biphenyl]-4-yl)methyl)cyclohexanecarboxamido) isoquinoline-6-carboxylate] showed an EC50 not above 1000 nM. Compound `COc1ccc(-c2ccc(CN(C(=O)CC(C)(C)C)c3nccc4cc(C(=O)O)ccc34)cc2)cc1C` [Compound 101, 1-(N-((4′-methoxy-3′-methyl-[1,1′-biphenyl]-4-yl)methyl)-3,3-dimethylbutanamido) isoquinoline-6-carboxylic acid] displayed a 50% effective concentration (EC50) not below 10000 nM.

Take `COC(=O)/C=C/c1ccnc(N(Cc2ccc(-c3ccc(N(C)C)nc3)cc2)C(=O)C2CCCCC2)c1` [Compound 5, (E)-Methyl 3-(2-(N-(4-(6-(dimethylamino)pyridin-3-yl)benzyl)cyclohexane-carboxamido)pyridin-4-yl)acrylate]: the concentration for a half-maximal effect (EC50) was in the range of 1000 to 10000 nM. As to `COC(=O)c1cc2cccc(N(Cc3ccc(-c4ccc(N(C)C)cc4)cc3)C(=O)C3CCCCC3)c2[nH]1` [Compound 10, Methyl 7-(N-((4′-(dimethylamino)-[1,1′-biphenyl]-4-yl)methyl)cyclohexanecarboxamido)-1H-indole-2-carboxylate], the 50% effective concentration (EC50) was not below 10000 nM. The compound `COC(=O)c1ccc2c(N(Cc3ccc(-c4ccc(OC)cc4)cc3)C(=O)CC(C)(C)C)nccc2c1` [Compound 45, Methyl 1-(N′-((4′-methoxy-[1,1′-biphenyl]-4-yl)methyl)-3,3-dimethylbutanamido)isoquinoline-6-carboxylate] yielded a half-maximal effective concentration (EC50) not above 1000 nM. As for `COC(=O)c1ccc2c(N(Cc3ccc(-c4ccc(OC)c(C)c4)cc3)C(=O)CCC(C)(C)C)nccc2c1` [Compound 76, Methyl 1-(N-((4′-methoxy-3′-methyl-[1,1′-biphenyl]-4-yl)methyl)-4,4-dimethylpentanamido)isoquinoline-6-carboxylate], the figure is not above 1000 nM.

In turn, `COC(=O)c1ccc2c(N(Cc3ccc(-c4ccc(OC)c(C)c4)cc3)C(=O)C3CCCCC3)nccc2c1` [Compound 20, Methyl 1-(N-((4′-methoxy-3′-methyl-[1,1′-biphenyl]-4-yl)methyl)cyclohexanecarboxamido) isoquinoline-6-carboxylate] came in with a concentration giving a half-maximal response (EC50) not above 1000 nM.

Regarding `CCC(C)(C)CC(=O)N(C[C@H]1CC[C@H](c2ccc(OC)c(C)c2)CC1)c1nccc2cc(C(=O)OC(C)C)ccc12` [Compound 88, Isopropyl 1-(N-((trans-4-(4-methoxy-3-methylphenyl)cyclohexyl)methyl)-3,3-dimethylpentanamido)isoquinoline-6-carboxylate], the EC50 is not above 1000 nM. On to `COC(=O)c1ccc2c(N(Cc3ccc(-c4ccc(OC)c(C)c4)cc3)C(=O)CCO)nccc2c1` [Compound 84, Methyl 1-(3-hydroxy-N-((4′-methoxy-3′-methyl-[1,1′-biphenyl]-4-yl)methyl)propanamido) isoquinoline-6-carboxylate], for which the EC50 was not below 10000 nM. On to `COC(=O)c1ccc2c(N(Cc3ccc(-c4ccc(C)c(Cl)c4)cc3)C(=O)CC(C)(C)C)nccc2c1` [Compound 55, Methyl 1-(N-((3′-chloro-4′-methyl-[1,1′-biphenyl]-4-yl)methyl)-3,3-dimethylbutanamido)isoquinoline-6-carboxylate], for which the EC50 is not above 1000 nM. As for `CCc1ccc(-c2ccc(CN(C(=O)CC(C)(C)C)c3nccc4cc(C(=O)OC)ccc34)cc2)cc1` [Compound 53, Methyl 1-(N-((4′-ethyl-[1,1′-biphenyl]-4-yl)methyl)-3,3-dimethylbutanamido)isoquinoline-6-carboxylate], the EC50 was not above 1000 nM.

Compound `COC(=O)c1ccc2c(N(Cc3ccc(-c4ccc(OC)c(C#N)c4)cc3)C(=O)CC(C)(C)C)nccc2c1` [Compound 24, Methyl 1-(N-((3′-cyano-4′-methoxy-[1,1′-biphenyl]-4-yl)methyl)-3,3-dimethylbutanamido)isoquinoline-6-carboxylate] registered an EC50 not above 1000 nM.

For the origin of these results see US10377717B2, “Farnesoid X receptor agonists and uses thereof” (Metacrine, Inc., priority 2015, dated 2019).
